Measured values reported in PubChem BioAssay AID1918956 (Molecular Pharmacology Branch, DTP, NCI, 2023).
pIC50: −log10 of the molar value.

Test system: OVCAR-5 complex spheroids, viability
Test: Anticancer human tumor OVCAR-5 cell line growth inhibition;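 note: spheroids exposed to agents for seven days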;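 for viability, T/C: 100% = DMSO vehicle control wells viability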
Details: for pIC50: curve of first compound; for viability, T/C: stronger effect = lower value
Excerpt: Multicellular complex tumor spheroid response to LSD1 Inhibitor Iadademstat in combination with a variety of drugs and investigational agents in selected tumor cell lines
The current study was undertaken to assess response to LSD1 inhibitors in combination with standard-of-care drugs and investigational agents in solid tumor complex spheroid models as well as in the K-562 leukemia. Complex spheroids include a stromal component modeled by human endothelial cells (HUVEC) and fibroblasts modeled by human mesenchymal stem cells (MSCs). The concentration ranges selected for each drug and investigational agent were based upon clinically achievable concentrations if the clinical Cmax of the agent was known.
Compounds. The drugs and investigational agents used in this study are listed on Table 1. All of the agents used, including staurosporine (NSC755774) and gemcitabine (NSC613327), were obtained from the Developmental Therapeutics Program, NCI. FDA-approved anticancer drugs are available from the NCI at http://dtp.nci.nih.gov/branches/dscb/oncology_drugset_explanation.html. Drugs and investigational agents were >95% pure by proton nuclear magnetic resonance (NMR) and liquid chromatography/mass spectrometry (LC/MS). Stock solutions were prepared at 400x in DMSO, stored at -70 degrees C, and diluted in fresh medium prior to their use. The final concentration of DMSO in cell culture wells never exceeded 0.25% (v/v). The FDA-approved anticancer drug set is available from the Developmental Therapeutics Program at https://dtp.cancer.gov/organization/dscb/obtaining/available_plates.htm. All drugs and investigational agents were tested over a range starting from a high concentration at or near the clinical Cmax and decreasing in half-log increments. If the clinical Cmax for an agent had not been determined, the highest concentration tested was 10 microM.
Cell Lines. The patient-derived cancer cell (PDC) lines: 292921-168-R-J2-PDC, K24384-001-R-PDC, and 521955-158-R2-J5-PDC pancreatic carcinomas, 556581-035-R-J1 ovarian carcinoma, 324938-238-R-J1-PDC, 855422-203-R-J1-PDC and 883617-216-R-J1-PDC urothelial bladder carcinomas, 743489-274-T-PDC renal cell carcinoma, 138582-R-J1 Merkel cell tumor, K60290-347-R-J1 and K57222-313-R-J1-PDC glioblastomas, 653999-131-R-J2-PDC, LG0703-F948-PDC, and 349418-098-R-PDC non-small cell lung carcinomas, 885512-296-R-J2-PDC, 171881-019-R-J1-PDC breast carcinomas and 186277-243-T-J2-PDC and 233499-124-R-J2-PDC colon carcinomas were obtained from the NCI Patient-Derived Models Repository (PDMR, https://pdmr.cancer.gov). The established cell lines NCI/ADR-RES (RRID:CVCL_14520 and OVCAR-5 (RRID:CVCL_1628) ovarian carcinomas, 786-O (RRID:CVCL_1051) and A498 […] renal cell carcinoma, NCI-H211 (ATCC, cat. CRL-5824; RRID:CVCL_1529), NCI-H196 (ATCC, cat. CRL-5823, RRID:CVCL_1509), SW 1271 (ATCC, cat. CRL-2177, RRID:CVCL_1716) and NCI-H1876 (ATCC, cat. CRL-5902, RRID:CVCL_1503) small cell lung carcinomas, MDA-MB-231 (RRID:CVCL_0062) and MDA-MB-468 (RRID:CVCL_0419)breast carcinomas (10-12). Pooled donor human umbilical vein endothelial cells (HUVEC, Lonza, cat. CC-2519) and human mesenchymal stem cells (hMSC, Lonza, cat. PT-2501) were purchased from Lonza (Walkersville, MD).
Cell Culture. All cells were maintained in an incubator at 37 degrees C and 5% CO2 with 95% humidity. The PDC lines were cultured according to standard operating procedures established by the NCI PDMR (https://pdmr.cancer.gov). Briefly all PDCs were thawed and cultured in Matrigel-coated flasks prepared with a working solution of 1X Ham's F-12 nutrient mix, without supplementation (Invitrogen, Waltham, MA, cat. 11765054), 100 U/mL penicillin-streptomycin (Invitrogen, cat. 15140122), and 2.5% Matrigel (Corning Inc., Corning, NY, cat. 354248) for the first three passages. […]

[1] = second compound 0.1 µM, first compound 0.00949 µM
[2] = second compound 0.1 µM, first compound 0.03 µM
[3] = second compound 0.1 µM, first compound 0.0949 µM
[4] = second compound 0.1 µM, first compound 0.3 µM
[5] = second compound 0.316 µM, first compound 0.00949 µM
[6] = second compound 0.316 µM, first compound 0.03 µM
[7] = second compound 0.316 µM, first compound 0.0949 µM
[8] = second compound 0.316 µM, first compound 0.3 µM
[9] = second compound 1 µM, first compound 0.00949 µM
[10] = second compound 1 µM, first compound 0.03 µM
[11] = second compound 1 µM, first compound 0.0949 µM
[12] = second compound 1 µM, first compound 0.3 µM
[13] = second compound 3.16 µM, first compound 0.00949 µM
[14] = second compound 3.16 µM, first compound 0.03 µM
[15] = second compound 3.16 µM, first compound 0.0949 µM
[16] = second compound 3.16 µM, first compound 0.3 µM
[17] = second compound 10 µM, first compound 0.00949 µM
[18] = second compound 10 µM, first compound 0.03 µM
[19] = second compound 10 µM, first compound 0.0949 µM
[20] = second compound 10 µM, first compound 0.3 µM

CCc1c2c(nc3ccc(O)cc13)-c1cc3c(c(=O)n1C2)COC(=O)[C@]3(O)CC + NC1CC1c1ccc(-c2cccc(O)c2)cc1 showed a pIC50 (second compound 0.1 µM) of over 9.02, a pIC50 (second compound 0.316 µM) of over 9.02 and a pIC50 (second compound 1 µM) of over 9.02. For the same molecule, the pIC50 (second compound 3.16 µM) was over 9.02, the pIC50 (second compound 10 µM) was over 9.02 and the viability, T/C (second compound 0.1 µM, first compound 0.000949 µM) was 33%. It also gave a viability, T/C (second compound 0.1 µM, first compound 0.003 µM) of 17.4%, a viability, T/C [1] of 7.17% and a viability, T/C [2] of 2.96%. For the same molecule, the viability, T/C [3] was 0.9%, the viability, T/C [4] was 0.46% and the viability, T/C (second compound 0.316 µM, first compound 0.000949 µM) was 31.7%. It also gave a viability, T/C (second compound 0.316 µM, first compound 0.003 µM) of 18.4%, a viability, T/C [5] of 7.68% and a viability, T/C [6] of 2.91%. It also gave a viability, T/C [7] of 0.78%, a viability, T/C [8] of 0.44% and a viability, T/C (second compound 1 µM, first compound 0.000949 µM) of 31.3%. For the same molecule, the viability, T/C (second compound 1 µM, first compound 0.003 µM) was 18%, the viability, T/C [9] was 7.01% and the viability, T/C [10] was 3.01%. It also gave a viability, T/C [11] of 0.61%, a viability, T/C [12] of 0.46% and a viability, T/C (second compound 3.16 µM, first compound 0.000949 µM) of 32.2%. The viability, T/C (second compound 3.16 µM, first compound 0.003 µM) was 18.7%, the viability, T/C [13] was 8.72% and the viability, T/C [14] was 4.14%. It also gave a viability, T/C [15] of 0.87%, a viability, T/C [16] of 0.58% and a viability, T/C (second compound 10 µM, first compound 0.000949 µM) of 34%. The viability, T/C (second compound 10 µM, first compound 0.003 µM) was 19.9%, the viability, T/C [17] was 8.18% and the viability, T/C [18] was 4.37%. It also gave a viability, T/C [19] of 0.68% and a viability, T/C [20] of 0.41%.
Nc1ccccc1NC(=O)c1ccc(CNC(=O)OCc2cccnc2)cc1 + NC1CC1c1ccc(-c2cccc(O)c2)cc1 gave a pIC50 (second compound 0.1 µM) of 6.91, a pIC50 (second compound 0.316 µM) of 6.76 and a pIC50 (second compound 1 µM) of 6.84. For the same molecule, the pIC50 (second compound 3.16 µM) was 6.95, the pIC50 (second compound 10 µM) was 6.91 and the viability, T/C [1] was 83.1%. For the same molecule, the viability, T/C [2] was 71.6%, the viability, T/C [3] was 54.5% and the viability, T/C [4] was 34.8%. It also gave a viability, T/C (second compound 0.1 µM, first compound 0.949 µM) of 19.2%, a viability, T/C (second compound 0.1 µM, first compound 3 µM) of 8.11% and a viability, T/C [5] of 84.9%. The viability, T/C [6] was 79.7%, the viability, T/C [7] was 65.3% and the viability, T/C [8] was 35.5%. For the same molecule, the viability, T/C (second compound 0.316 µM, first compound 0.949 µM) was 19.4%, the viability, T/C (second compound 0.316 µM, first compound 3 µM) was 8.17% and the viability, T/C [9] was 75.6%. The viability, T/C [10] was 65.9%, the viability, T/C [11] was 62.2% and the viability, T/C [12] was 32.4%. For the same molecule, the viability, T/C (second compound 1 µM, first compound 0.949 µM) was 19.8%, the viability, T/C (second compound 1 µM, first compound 3 µM) was 8.19% and the viability, T/C [13] was 84%. For the same molecule, the viability, T/C [14] was 68.6%, the viability, T/C [15] was 55.5% and the viability, T/C [16] was 30.6%. For the same molecule, the viability, T/C (second compound 3.16 µM, first compound 0.949 µM) was 17.8%, the viability, T/C (second compound 3.16 µM, first compound 3 µM) was 7.56% and the viability, T/C [17] was 79.6%. The viability, T/C [18] was 71.3%, the viability, T/C [19] was 55.5% and the viability, T/C [20] was 32.1%. It also gave a viability, T/C (second compound 10 µM, first compound 0.949 µM) of 19.5% and a viability, T/C (second compound 10 µM, first compound 3 µM) of 9.48%.
O=C(c1cc(Cc2n[nH]c(=O)c3ccccc23)ccc1F)N1CCN(C(=O)C2CC2)CC1 + NC1CC1c1ccc(-c2cccc(O)c2)cc1 gave a pIC50 (second compound 0.1 µM) of under 5.00, a pIC50 (second compound 0.316 µM) of under 5.00 and a pIC50 (second compound 1 µM) of under 5.00. It also gave a pIC50 (second compound 3.16 µM) of under 5.00, a pIC50 (second compound 10 µM) of under 5.00 and a viability, T/C (second compound 0.1 µM, first compound 0.0316 µM) of 97.6%. The viability, T/C (second compound 0.1 µM, first compound 0.1 µM) was 112%, the viability, T/C (second compound 0.1 µM, first compound 0.316 µM) was 102% and the viability, T/C (second compound 0.1 µM, first compound 1 µM) was 88%. The viability, T/C (second compound 0.1 µM, first compound 3.16 µM) was 76.9%, the viability, T/C (second compound 0.1 µM, first compound 10 µM) was 74.9% and the viability, T/C (second compound 0.316 µM, first compound 0.0316 µM) was 114%. It also gave a viability, T/C (second compound 0.316 µM, first compound 0.1 µM) of 104%, a viability, T/C (second compound 0.316 µM, first compound 0.316 µM) of 99.4% and a viability, T/C (second compound 0.316 µM, first compound 1 µM) of 93.7%. For the same molecule, the viability, T/C (second compound 0.316 µM, first compound 3.16 µM) was 85.3%, the viability, T/C (second compound 0.316 µM, first compound 10 µM) was 73.8% and the viability, T/C (second compound 1 µM, first compound 0.0316 µM) was 94.9%. For the same molecule, the viability, T/C (second compound 1 µM, first compound 0.1 µM) was 105%, the viability, T/C (second compound 1 µM, first compound 0.316 µM) was 93.7% and the viability, T/C (second compound 1 µM, first compound 1 µM) was 81.2%. For the same molecule, the viability, T/C (second compound 1 µM, first compound 3.16 µM) was 81.5%, the viability, T/C (second compound 1 µM, first compound 10 µM) was 72.3% and the viability, T/C (second compound 3.16 µM, first compound 0.0316 µM) was 97.9%. The viability, T/C (second compound 3.16 µM, first compound 0.1 µM) was 86.9%, the viability, T/C (second compound 3.16 µM, first compound 0.316 µM) was 96.9% and the viability, T/C (second compound 3.16 µM, first compound 1 µM) was 83%. It also gave a viability, T/C (second compound 3.16 µM, first compound 3.16 µM) of 71%, a viability, T/C (second compound 3.16 µM, first compound 10 µM) of 65.5% and a viability, T/C (second compound 10 µM, first compound 0.0316 µM) of 95.8%. The viability, T/C (second compound 10 µM, first compound 0.1 µM) was 87%, the viability, T/C (second compound 10 µM, first compound 0.316 µM) was 70.5% and the viability, T/C (second compound 10 µM, first compound 1 µM) was 81.9%. The viability, T/C (second compound 10 µM, first compound 3.16 µM) was 73.2% and the viability, T/C (second compound 10 µM, first compound 10 µM) was 60.2%.
